How the values were obtained:
[1] = tested on: rat auricular subcutaneous blood vessel; test: Vasodilation in vivo, blood vessel diameter after intravenous administration
Procedure: Eight-week-old or older female rats (Wistar, body weight: approximately 200 g, n=1) were anesthetized by subcutaneous administration of urethane so as to be […] body weight. The hair of the auricles of the rats was then removed and the rats were fixed on a fixing table. After the fixing, the fixing table was placed under a microscope (Nikon OPTIphoto, produced by Nikon Corporation). In addition, a catheter was placed in the groin vein of the rat.
BisEP-C3 was dissolved in a saline solution to achieve a concentration of 3 mg/ml. The resulting saline solution containing BisEP-C3 was administered intravenously via the catheter so as to be 3 mg/kg body weight. Then, the hemodynamic course of the rat auricular subcutaneous blood vessel was photographed and recorded using a microscope at a predetermined period (30, 60, 120 or 180 minutes) before and after the administration.
The obtained images were classified into three blood vessel thicknesses (thick: 35-45 μm, medium: 15-20 μm, thin: 7-9 μm) based on the diameter of the blood vessel before administration. […] Further, for each selected site, the relative blood vessel diameter was calculated after the measurement of the blood vessel diameter, with the blood vessel diameter before administration being a reference (1). […] As a control, the blood vessel diameter was calculated in the same manner except that the saline solution was administered.

[2] = tested on: blood vessel of the mesentery; test: LPS-induced vascular disorder of the mesentery, bleeding and leukocyte rolling; type: in vivo, rat
From the text: Eight-week-old or older female rats (Wistar, body weight: approximately 200 g, n=1) were anesthetized by subcutaneous administration of urethane (1.75 g/kg body weight). The rats were then opened and fixed on a fixing table in such a manner that the mesentery of the rats was observable. After the fixing, the fixing table was placed under a microscope (Nikon OPTIphoto, produced by Nikon Corporation) so that the mesentery could be observed. In addition, a catheter was placed in the groin vein of the rat.
1μg/ml of lipopolysaccharide (LPS) (produced by Sigma-Aldrich Co., Ltd.) derived from Pseudomonas aeruginosa (ATCC27316) was added dropwise once (20 μl, 20 ng/sight) and allowed to stand for 30 minutes. Next, a saline solution containing BisEP-C3 prepared in the same manner as in Example 9 was rapidly administered intravenously via the catheter so as to be 1 mg/kg body weight. After the intravenous administration, the saline solution was administered continuously so as to be 1 mg/kg body weight per hour (0.15 ml/hour). […] In the obtained photograph, the area of the region where bleeding occurred (bleeding area) was detected based on the number of pixels, and then the proportion of the area (bleeding area proportion) occupied per visual field was calculated. […]

[3] = NO-eliminating ability by ESR with NO donor NOC-7 and Carboxy-PTIO
Procedure: It was examined whether the vasodilator of the present invention has NO-eliminating ability. Specifically, as to the NO generation reaction, NOC-7 of NO donor was used to examine whether the NO concentration is reduced in the presence of BisEP-C3. First, 20 μl of a BisEp-C3 solution was added to 140 μl of a phosphate buffer solution (pH 7.4) having a concentration of […] so as to achieve a predetermined concentration (0, 25, 50, 100, 200, 400, or 600 μmol/1), and further 20 μl of a spin-trapping agent (100 μmol/1), Carboxy-PTIO(2-(4-Carboxyphenyl)-4, 4, 5, 5-tetramethylimidazoline-1-oxyl-3-oxide, sodium salt, final concentration 10 μmol/1) solution and 20 μl of a NO donor solution (10 mmol/1NOC-7 (1-Hydroxy-2-oxo-3-(N-methyl-3-aminopropyl)-3-methyl-1-triazene, final concentration […])) were added and mixed. The NO donor solution was prepared using a sodium hydroxide solution having a concentration of 0.1 mmol/1. Then, after the mixing, the mixture was incubated at room temperature for 3 minutes, and the obtained reaction solution was measured under the following ESR measurement conditions 2. Then, the proportion of the decrease in the signal intensity was calculated as the NO-eliminating ability with the signal intensity of the sample with no BisEP-C3 (0 μmol/1) being 100%.
ESR Measurement Conditions 2 […]

CCN1N=C(C)/C(=C\C=C\c2c(C)nn(CC)c2O)C1=O [BisEp-C3, 2,4-dihydro-4-[3-(1-ethyl-5-hydroxy-3-methyl-1H-pyrazol-4-yl)-2-propen-1-ylidene]-2-ethyl-5-methyl-3H-pyrazol-3-one]
relative value of the blood vessel diameter ([1]; 3 mg/kg body weight intravenously, 30, 60, 120 or 180 minutes, versus saline control, FIG. 10): dilated at any time after administration as compared to the control
severity of dilatation by blood vessel size ([1]; thick 35-45 μm, medium 15-20 μm, thin 7-9 μm, 3 mg/kg intravenously): remarkably observed in the smaller blood vessels
bleeding area and bleeding area proportion ([2]; LPS instillation, 1 mg/kg intravenously then 1 mg/kg per hour, up to 180 minutes, FIGS. 12 and 13): no bleeding was observed
rolling phenomena of leukocytes ([2]; after LPS instillation, compared to the control): a large number of rolling phenomena of leukocytes were observed
NO-eliminating ability ([3]; 0, 25, 50, 100, 200, 400, or 600 μmol/1, 3 minutes at room temperature, FIG. 14): eliminated NO in a concentration-dependent manner
superoxide decrease compared with NO-eliminating ability ([3]; equal concentration, comparison with the superoxide test): the proportion of the decrease in the production amount of superoxide is larger than the NO-eliminating ability

From US12569470B2, “Vasodilator and use thereof” (Bioradical Research Institute Corp., priority 2019, dated 2026)
